Ki data for nine compounds are collected here from patent publication US5504101A, “5-HT-1D receptor ligands” (priority 1994, dated 1996).

Broadly, the Ki is the dissociation constant of the complex between target and ligand, obtained from inhibition or displacement.

For this test, the target named is T1, 5-HT1Dβ receptor (Homo sapiens, UniProt P28222).
T1 construct: expressed in transfected cells
T1 sequence (P28222 whole entry): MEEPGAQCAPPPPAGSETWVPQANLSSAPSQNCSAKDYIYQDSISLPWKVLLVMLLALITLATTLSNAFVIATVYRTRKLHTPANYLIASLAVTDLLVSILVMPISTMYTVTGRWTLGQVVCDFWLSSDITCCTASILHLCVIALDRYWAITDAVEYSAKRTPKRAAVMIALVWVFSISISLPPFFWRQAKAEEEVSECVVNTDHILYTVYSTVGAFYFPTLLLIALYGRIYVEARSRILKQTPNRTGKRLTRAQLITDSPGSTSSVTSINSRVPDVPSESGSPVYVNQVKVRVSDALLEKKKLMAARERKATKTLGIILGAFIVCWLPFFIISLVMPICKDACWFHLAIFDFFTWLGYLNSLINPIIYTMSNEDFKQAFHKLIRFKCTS
The test can be described thus: biochemical. In kind it is binding. The following applies: ^3 H-5-HT radioligand; membranes from recombinant cells; 15 minute incubation at 37° C.; test compound 10^-11 M to 10^-5 M.
Method: The assay protocol generally entailed the incubation of membranes prepared from cells expressing the 1Dβ sub-type of 5-HT1D receptors, with ^3 H-5-HT. Increasing concentrations of the test compound were incubated with the radioligand and the membrane homogenates prepared from the recombinant cells. After a 15 minute incubation at 37° C., the incubation was terminated by vacuum filtration. The filters were washed with buffer and counted for radioactivity using liquid scintillation spectrometry. The affinity of the test compound for 5-HT1DIβ receptor was determined by computer-assisted analysis of the data and by determining the amount of the compound necessary to inhibit 50% of the binding of the radioligand to the receptor. Concentrations ranging from 10^-11 M to 10^-5 M of the test compounds were evaluated.
In the case of `COc1ccc(CCc2ccc3[nH]cc(CCN)c3c2)cc1` [4-MeO--Ph(CH2)2 --, 3-(2-aminoethyl)-5-(2-(4-methoxyphenyl)ethyl)indole], the inhibition constant (Ki) was 3.2 nM.
On to `NCCc1c[nH]c2ccc(CCc3ccccc3)cc12` [Ph(CH2)2 --, 3-(2-aminoethyl)-5-(2-phenylethyl)-indole], for which the Ki turned out to be 2.9 nM.
Under `NCCc1c[nH]c2ccc(OCCc3ccccc3)cc12` [Ph(CH2)2 O--, 3-(2-aminoethyl)-5-(2-phenylethyloxy)indole] stands 1 nM; under `NCCc1c[nH]c2ccc(OCCCCc3ccccc3)cc12` [Ph(CH2)4 O--, 3-(2-aminoethyl)-5-(4-phenylbutyloxy)indole], 0.19 nM.
Under `NCCc1c[nH]c2ccc(OCCCCCc3ccccc3)cc12` [Ph(CH2)5 O--, 3-(2-aminoethyl)-5-(5-phenylpentyloxy)indole] stands 0.64 nM; under `NCCc1c[nH]c2ccc(OCCCCCCc3ccccc3)cc12` [Ph(CH2)6 O--, 3-(2-aminoethyl)-5-(6-phenylhexyloxy)indole], 1.9 nM.
Turning to `NCCc1c[nH]c2ccc(OCCCCCCCCc3ccccc3)cc12` [Ph(CH2)8 O--, reference compound], the Ki was found to be 13.3 nM.
For the compound `NCCc1c[nH]c2ccc(Cc3ccccc3)cc12` [PhCH2 --, 3-(2-aminoethyl)-5-benzylindole], the inhibition constant Ki turned out to be 3.7 nM.
For `NCCc1c[nH]c2ccc(OCc3ccccc3)cc12` [PhCH2 O--, 3-(2-aminoethyl)-5-benzyloxyindole, reference compound] the value was 10.5 nM.
